# Data: US20060281771A1, “SYNERGISTIC MODULATION OF FLT3 KINASE USING AMINOQUINOLINE AND AMINOQUINAZOLINE KINASE MODULATORS” (priority 2005, published 2006)
# Tests used:
# [1] = target: T1, wild-type FLT3 phosphorylation in Baf3 FLT3 cells (Homo sapiens, UniProt P36888); experiment: Cell-based FLT3 receptor ELISA; settings: FLT ligand-induced FLT3 phosphorylation
# T1 construct: host or cells: Baf3 (murine B cell lymphoma line)
# T1 sequence (P36888 27-993): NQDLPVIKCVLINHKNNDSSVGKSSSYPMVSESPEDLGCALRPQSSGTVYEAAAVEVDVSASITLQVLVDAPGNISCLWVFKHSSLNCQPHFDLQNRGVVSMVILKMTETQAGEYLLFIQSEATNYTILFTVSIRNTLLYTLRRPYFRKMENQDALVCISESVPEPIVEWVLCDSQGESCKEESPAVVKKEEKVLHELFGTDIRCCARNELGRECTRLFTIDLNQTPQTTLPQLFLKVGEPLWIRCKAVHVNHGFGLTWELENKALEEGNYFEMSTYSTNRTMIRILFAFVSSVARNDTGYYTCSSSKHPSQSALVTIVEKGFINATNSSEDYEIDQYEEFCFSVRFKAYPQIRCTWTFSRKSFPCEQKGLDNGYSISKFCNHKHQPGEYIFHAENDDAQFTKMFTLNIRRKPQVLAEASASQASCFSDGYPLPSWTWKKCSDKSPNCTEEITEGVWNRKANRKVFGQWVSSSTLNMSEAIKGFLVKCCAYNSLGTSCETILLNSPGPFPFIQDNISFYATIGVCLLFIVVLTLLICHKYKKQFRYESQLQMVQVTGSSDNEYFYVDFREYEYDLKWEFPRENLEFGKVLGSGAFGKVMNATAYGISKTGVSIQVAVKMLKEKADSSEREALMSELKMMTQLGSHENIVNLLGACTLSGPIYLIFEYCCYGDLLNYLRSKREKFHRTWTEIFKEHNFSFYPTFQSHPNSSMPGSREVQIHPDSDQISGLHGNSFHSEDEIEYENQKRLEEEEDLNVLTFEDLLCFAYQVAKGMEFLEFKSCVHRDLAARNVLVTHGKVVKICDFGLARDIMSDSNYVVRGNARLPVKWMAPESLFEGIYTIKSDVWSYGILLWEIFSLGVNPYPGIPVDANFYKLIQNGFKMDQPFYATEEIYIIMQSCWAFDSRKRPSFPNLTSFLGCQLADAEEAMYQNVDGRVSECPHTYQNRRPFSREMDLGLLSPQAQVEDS
# Description: Specific cellular inhibition of FLT ligand-induced wild-type FLT3 phosphorylation was measured in the following manner: Baf3 FLT3 cells overexpressing the FLT3 receptor were obtained from Dr. Michael Heinrich (Oregon Health and Sciences University). The Baf3 FLT3 cell lines were created by stable transfection of parental Baf3 cells (a murine B cell lymphoma line dependent on the cytokine IL-3 for growth) with wild-type FLT3. Cells were selected for their ability to grow in the absence of IL-3 and in the presence of FLT3 ligand.
# Baf3 cells were maintained in RPMI 1640 with 10% FBS, penn/strep and 10 ng/ml FLT ligand at 37° C., 5% CO2. To measure direct inhibition of the wild-type FLT3 receptor activity and phosphorylation a sandwich ELISA method was developed similar to those developed for other RTKs (see Sadick, M D, Sliwkowski, M X, Nuijens, A, Bald, L, Chiang, N, Lofgren, J A, Wong W L T. Analysis of Heregulin-Induced ErbB2 Phosphorylation with a High-Throughput Kinase Receptor Activation Enzyme-Linked Immunsorbent Assay, Analytical Biochemistry. 1996; 235:207-214 and Baumann C A, Zeng L, Donatelli R R, Maroney A C. Development of a quantitative, high-throughput cell-based enzyme-linked immunosorbent assay for detection of colony-stimulating factor-1 receptor tyrosine kinase inhibitors. J Biochem Biophys Methods. 2004; 60:69-79.). 200 μL of Baf3FLT3 cells (1×10^6/mL) were plated in 96 well dishes in RPMI 1640 with 0.5% serum and 0.01 ng/mL IL-3 for 16 hours prior to 1 hour compound or DMSO vehicle incubation. Cells were treated with 100 ng/mL Flt ligand (R&D Systems Cat# 308-FK) for 10 min. at 37° C. Cells were pelleted, washed and lysed in 100 ul lysis buffer (50 mM Hepes, 150 mM NaCl, 10% Glycerol, 1% Triton-X-100, 10 mM NaF, 1 mM EDTA, 1.5 mM MgCl2, 10 mM NaPyrophosphate) supplemented with phosphatase (Sigma Cat# P2850) and protease inhibitors (Sigma Cat #P8340). Lysates were cleared by centrifugation at 1000×g for 5 minutes at 4° C. Cell lysates were transferred to white wall 96 well microtiter (Costar #9018) plates coated with 50 ng/well anti-FLT3 antibody (Santa Cruz Cat# sc-480) and blocked with SeaBlock reagent (Pierce Cat#37527). Lysates were incubated at 4° C. for 2 hours. Plates were washed 3× with 200 ul/well PBS/0.1% Triton-X-100. Plates were then incubated with 1:8000 dilution of HRP-conjugated anti-phosphotyrosine antibody (Clone 4G10, Upstate Biotechnology Cat#16-105) for 1 hour at room temperature. Plates were washed 3× with 200 ul/well PBS/0.1% Triton-X-100. Signal detection with Super Signal Pico reagent (Pierce Cat#37070) was done according to manufacturer's instruction with a Berthold microplate luminometer. All data points are an average of triplicate samples. […] Inhibition and IC50 data analysis was done with GraphPad Prism using a non-linear regression fit with a multiparamater, sigmoidal dose-response (variable slope) equation.
# [2] = target: T2, isolated kinase domain of the human FLT3 receptor (a.a. 571-993) (Homo sapiens, UniProt P36888); experiment: FLT3 fluorescence polarization kinase assay; format: biochemical
# T2 construct: human FLT3 receptor (a.a. 571-993)
# T2 sequence (P36888 571-993): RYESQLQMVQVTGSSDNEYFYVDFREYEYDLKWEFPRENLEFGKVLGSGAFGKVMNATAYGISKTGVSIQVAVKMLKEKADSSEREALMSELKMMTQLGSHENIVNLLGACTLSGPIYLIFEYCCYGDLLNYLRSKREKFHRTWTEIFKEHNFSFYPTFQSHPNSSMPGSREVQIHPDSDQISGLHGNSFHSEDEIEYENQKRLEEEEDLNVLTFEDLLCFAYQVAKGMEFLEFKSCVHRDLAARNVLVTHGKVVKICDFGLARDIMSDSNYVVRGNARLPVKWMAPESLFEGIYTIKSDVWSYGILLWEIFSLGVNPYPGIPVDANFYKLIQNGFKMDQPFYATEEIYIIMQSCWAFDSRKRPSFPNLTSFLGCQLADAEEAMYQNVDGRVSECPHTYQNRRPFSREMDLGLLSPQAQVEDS
# Description: The FLT3 FP assay utilizes the fluorescein-labeled phosphopeptide and the anti-phosphotyrosine antibody included in the Panvera Phospho-Tyrosine Kinase Kit (Green) supplied by Invitrogen. When FLT3 phosphorylates polyGlu4Tyr, the fluorescein-labeled phosphopeptide is displaced from the anti-phosphotyrosine antibody by the phosphorylated poly Glu4Tyr, thus decreasing the FP value. […] The kinase reaction is stopped with the addition of EDTA. The fluorescein-labeled phosphopeptide and the anti-phosphotyrosine antibody are added and incubated for 30 minutes at room temperature.
# All data points are an average of triplicate samples. Inhibition and IC50 data analysis was done with GraphPad Prism using a non-linear regression fit with a multiparamater, sigmoidal dose-response (variable slope) equation.
Structure (SMILES),IC50 [1],IC50 [2]
"COc1cc2ncnc(N3CCC(OC(=O)Nc4ccc(C(C)C)cc4)C3)c2cc1OC (stereo not shown) [Compound 2, (4-Isopropyl-phenyl)-carbamic acid 1-(6,7-dimethoxy-quinazolin-4-yl)-pyrrolidin-3-yl ester]",64 nM,7 nM
"COc1cc2ncnc(N3CCC(OC(=O)Nc4ccc(OC(C)C)cc4)CC3)c2cc1OC [Compound 3, (4-Isopropoxy-phenyl)-carbamic acid 1-(6,7-dimethoxy-quinazolin-4-yl)-piperidin-4-yl ester]",118 nM,8 nM
"COc1cc2ncnc(N3CCC(NC(=O)Nc4ccc(C(C)C)cc4)C3)c2cc1OC (stereo not shown) [Compound 7, 1-[1-(6,7-Dimethoxy-quinazolin-4-yl)-pyrrolidin-3-yl]-3-(4-isopropyl-phenyl)-urea]",140 nM,16 nM
"COc1cc2ncnc(N3CCC(NC(=O)Nc4ccc(OC(C)C)cc4)C3)c2cc1OC (stereo not shown) [Compound 8, 1-[1-(6,7-Dimethoxy-quinazolin-4-yl)-pyrrolidin-3-yl]-3-(4-isopropoxy-phenyl)-urea]",360 nM,23 nM
"COc1cc2ncnc(N3CCC(OC(=O)Nc4ccc(OC5CCC5)nc4)C3)c2cc1OC (stereo not shown) [Compound 12, (6-Cyclobutoxy-pyridin-3-yl)-carbamic acid 1-(6,7-dimethoxy-quinazolin-4-yl)-pyrrolidin-3-yl ester]",11 nM,35 nM
"COc1cc2ncnc(N3CCC(C(=O)Nc4ccc(C(C)C)cc4)CC3)c2cc1OC [Compound 13, 1-(6,7-Dimethoxy-quinazolin-4-yl)-piperidine-4-carboxylic acid (4-isopropyl-phenyl)-amide]",89 nM,37 nM
"COc1cc2ncnc(N3CCC(OC(=O)Nc4ccc(OC(C)C)cc4)C3)c2cc1OC (stereo not shown) [Compound 15, (4-Isopropoxy-phenyl)-carbamic acid 1-(6,7-dimethoxy-quinazolin-4-yl)-pyrrolidin-3-yl ester]",320 nM,42 nM
"CC(C)c1ccc(NC(=O)NC2CCN(c3ncnc4ccccc34)C2)cc1 (stereo not shown) [Compound 16, 1-(4-Isopropyl-phenyl)-3-(1-quinazolin-4-yl-pyrrolidin-3-yl)urea]",242 nM,45 nM
"CCN(CC)CC#Cc1ccc2ncnc(N3CCC(OC(=O)Nc4ccc(C(C)C)cc4)C3)c2c1 (stereo not shown) [Compound 17, (4-Isopropyl-phenyl)-3-carbamic acid 1-[6-(3-diethylamino-prop-1-ynyl)-quinazolin-4-yl]-pyrrolidin-3-yl ester]",163 nM,63 nM
"COc1cc2ncnc(N3CCC(N(C)C(=O)Nc4ccc(C(C)C)cc4)C3)c2cc1OC (stereo not shown) [Compound 19, 1-[1-(6,7-Dimethoxy-quinazolin-4-yl)-pyrrolidin-3-yl]-3-(4-isopropyl-phenyl)-1-methyl-urea]",210 nM,68 nM
"COc1cc2ncnc(N3CCC(NC(=O)Cc4ccc(C(C)C)cc4)CC3)c2cc1OC [Compound 21, N-[1-(6,7-Dimethoxy-quinazolin-4-yl)-piperidin-4-yl]-2-(4-isopropyl-phenyl)-acetamide]",63 nM,150 nM
"COc1cc2ncnc(N3CCC(C(=O)Nc4ccc(OC(C)C)cc4)CC3)c2cc1OC [Compound 23, 1-(6,7-Dimethoxy-quinazolin-4-yl)-piperidine-4-carboxylic acid (4-isopropoxy-phenyl)-amide]",176 nM,185 nM

# Next, values leading:
IC50 [1],IC50 [2],Structure (SMILES)
16 nM,6 nM,"COc1cc2ncnc(N3CCC(OC(=O)Nc4ccc(C(C)C)cc4)CC3)c2cc1OC [Compound 1, (4-Isopropyl-phenyl)-carbamic acid 1-(6,7-dimethoxy-quinazolin-4-yl)-piperidin-4-yl ester]"
6 nM,11 nM,COc1cc2ncnc(N3CCCC(COC(=O)Nc4ccc(C(C)C)cc4)C3)c2cc1OC (stereo not shown) [Compound 4]
6 nM,12 nM,"COc1cc2ncnc(N3CCC(CC(=O)Nc4ccc(C(C)C)cc4)CC3)c2cc1OC [Compound 5, 2-[1-(6,7-Dimethoxy-quinazolin-4-yl)-piperidin-4-yl]-N-(4-isopropyl-phenyl)-acetamide]"
46 nM,14 nM,"COc1cc2ncnc(N3CCC(CC(=O)Nc4ccc(C(C)C)cc4)C3)c2cc1OC (stereo not shown) [Compound 6, 2-[11-(6,7-Dimethoxy-quinazolin-4-yl)-pyrrolidin-3-yl]-N-(4-isopropyl-phenyl)-acetamide]"
27 nM,25 nM,COc1cc2ncnc(N3CCCC3COC(=O)Nc3ccc(C(C)C)cc3)c2cc1OC (stereo not shown) [Compound 9]
4 nM,37 nM,"CC(C)c1ccc(NC(=O)OC2CCN(c3ncnc4ccc(C#CCO)cc34)C2)cc1 (stereo not shown) [Compound 14, (4-Isopropyl-phenyl)-carbamic acid 1-[6-(3-hydroxy-prop-1-ynyl)-quinazolin-4-yl]-pyrrolidin-3-yl ester]"
49 nM,66 nM,"COc1cc2ncnc(N3CCC(CNC(=O)Nc4ccc(C(C)C)cc4)CC3)c2cc1OC [Compound 18, 1-[1-(6,7-Dimethoxy-quinazolin-4-yl)-piperidin-4-ylmethyl]-3-(4-isopropyl-phenyl)-urea]"
43 nM,96 nM,"CC(C)c1ccc(NC(=O)OC2CCN(c3ncnc4ccc(I)cc34)C2)cc1 (stereo not shown) [Compound 20, (4-Isopropyl-phenyl)-carbamic acid 1-(6-iodo-quinazolin-4-yl)-pyrrolidin-3-yl ester]"
